# Assay results reported in patent publication US11472826B2, “Acyclic antivirals” (priority 2016, dated 2022).
# What was measured:
# HBV = assay: microbe, parasite or virus in culture; assay type: cell-based; conditions: Hepatitis B virus; HepG2.117 cells, 72 hours, HBV viral copy numbers in supernatant; read-out: EC50
# [1] = test system: VSV-G pseudotyped HIV NL4-3; assay: microbe, parasite or virus in culture; assay type: cell-based; conditions: Human immunodeficiency virus 1, NL43, 72 h
Structure (SMILES),EC50 (HBV),EC50 [1]
CC(C)OC(=O)OCOP(=O)(CO[C@H](C)Cc1cnc2c(N)ncnn12)OCOC(=O)OC(C)C [Compound 12],< 1 µM,< 20 µM
CC(C)OC(=O)OCOP(=O)(CO[C@H](C)Cc1cnn2c(N)ncnc12)OCOC(=O)OC(C)C [Compound 13],> 100 µM,< 20 µM
CC(C)OC(=O)OCOP(=O)(CO[C@@H](C)Cc1cnn2c(N)ncnc12)OCOC(=O)OC(C)C [Compound 14],< 1 µM,< 20 µM
